Data taken from BindingDB's records for doi:10.1016/S0960-894X(00)80383-2 (1992).
Counter-ions that a name gives are not always drawn.

Assay: Concentration required to inhibit the enzyme cathepsin

In the case of `CCC[C@H](NC(=O)[C@H](Cc1ccc(OC)cc1)NC(=O)CC(C)C)C(=O)N[C@@H](CC1CCCCC1)C(=O)C(F)(F)CN` [(S)-2-[(S)-3-(4-Methoxy-phenyl)-2-(3-methyl-butyrylamino)-propionylamino]-pentanoic acid ((S)-4-amino-1-cyclohexylmethyl-3,3-difluoro-2-oxo-butyl)-amide; hydrochloride], the Ki is reported as 4 µM.
